Test results: BindingDB's records for doi:10.1021/jm00177a018 (1980)

Each compound was assayed against Aldehyde oxidase (Oryctolagus cuniculus) (assay: Tested for its ability to inhibit rabbit liver aldehyde oxidase catalyzed oxidation of N-methyl-nicotinamide (NMN)).

SMILES	Ki
CCOP(=O)(CCC=O)c1ccccc1 (stereo not drawn)	100 µM
CCOP(=O)(CC=O)OCC	300 µM
CCOC(CCP(=O)(OCC)OCC)OCC	200 µM
